Format in all cases: in vivo
Data set [1] has as its system SNC. The experiment in a line: Essential activity on the CNS (Tableau I and conclusions of the neuropsychopharmacological study). Particulars: in vivo. The text has this: Dans le tableau I ci-après, on a consigné un certain nombre de composés selon la formule I de façon nullement limitative, en mentionnant l'activité essentielle sur le SNC.
Les composés de formule I agissent tous sur le SNC. Les produits des exemples 1-3 et 7-8 sont des agents stimulants, en revanche les produits des exemples 4-6 sont des agents sédatifs.

Data set [2] relates to souris mâle. The experiment in a line: Pentobarbital-induced sleep duration. The text has this: Les composés selon l'invention se distinguent du benzhydrylsulfinylacétamide (CRL 40476) précité par une différence d'action vis-à-vis du sommeil barbiturique. […]. Cette différence d'action qui est intéressante sur le plan thérapeutique est illustrée par le tableau IV
Data set [3] concerns souris mâle. The experiment in a line: Toxicity, DL-0. Particulars: i.p. As to the method: (§1) On a résumé ci-après les résultats des essais pharmacologiques qui ont été entrepris avec les produits selon la présente addition. Dans ces essais, les produits de formule I à étudier ont été administrés par voie intrapéritonéale, en suspension dans une solution aqueuse de gomme arabique, sous un volume de 20 ml/kg chez la souris mâle et sous un volume de 5 ml/kg chez le rat mâle.
La toxicité a été étudiée chez la souris mâle. Les résultats relatifs à la DL-0 (dose minimale non mortelle) sont donnés dans le tableau II ci-après.

Data set [4] relates to souris mâles. The experiment in a line: Global behaviour and reactivities, mouse. Conditions: souris. The protocol:
as §1
(§2) Pour apprécier le comportement global et les réactivités, des lots de six animaux (souris mâles ou rats mâles) ont été observés avant administration de chaque produit, puis 15 min, 30 min, 1 h, 2 h, 3 h et 24 h après administration de chaque produit. Les résultats sont consignés dans le tableau III ci-après, […]

The subject of data set [5] is souris. As to the kind of experiment: Electroshock. The protocol: as §1
(§3) Les essais sont effectués sur des lots de 10 souris (par dose) 0,5 h après l'administration du CRL 40933.

The test system of data set [6] is souris. As to the kind of experiment: Spontaneous motility (actimeter). The protocol: as §1
Une demi-heure, après avoir reçu le CRL 40933, les souris (6 par dose, 12 témoins) sont placées en actimètre où leur motilité est enregistrée pendant 30 min.

The subject of data set [7] is souris. As to the kind of experiment: Motility reduced by habituation to the enclosure. The protocol: as §1
Après 18 h de séjour dans les actimètres, les souris (6 par dose, 12 témoins) reçoivent le CRL 40933. Elles sont aussitôt replacées dans leurs enceintes respectives et, 30 min plus tard, on enregistre leur motilité pendant 30 min.

The subject of data set [8] is souris. As to the kind of experiment: Motility reduced by hypoxic aggression (acute hypobaric anoxia). Particulars: doses élevées. As to the method:
as §1
Une demi-heure après avoir reçu le CRL 40933, les souris (10 par dose, 20 témoins) sont soumises à une anoxie hypobare aiguë [dépression de 600 mm Hg (soit environ 8 x 10^4 pascals) en 90 s, puis détente de 45 s], puis elles sont placées en actimètre où leur motilité est enregistrée pendant 10 min.

For data set [9], the system named is souris. As to the kind of experiment: Interaction with barbital (sleep). As to the method:
as §1
Une demi-heure après l'administration de CRL 40933, des lots de 10 souris reçoivent une injection intrapéritonéale de 220 mg/kg de barbital.

The test system of data set [10] is souris. As to the kind of experiment: Behavioural despair (forced immersion). Particulars: souris. As to the method: as §1
Une demi-heure après avoir reçu le CRL 40933, des lots de 10 souris par dose sont placés dans un espace restreint rempli d'eau sur une hauteur de 6 cm; on note la durée d'immobilité entre la 2e et la 6e minute suivant l'immersion.

Data set [11] has as its system rats mâles. As to the kind of experiment: Global behaviour and reactivities, rat. As to the method:
as §1, §2

For data set [12], the system named is souris. The experiment in a line: Interaction with apomorphine, mouse. Particulars: 256 mg/kg i.p. As to the method:
as §1
Des lots de 6 souris par dose reçoivent le CRL 40933 0,5 h avant l'injection sous-cutanée d'apomorphine administrée à la dose de 1 ou 16 mg/kg.

The test system of data set [13] is souris. The experiment in a line: Interaction with reserpine. As to the method: as §1
Quatre heures après l'injection intrapéritonéale de 2,5 mg/kg de réserpine, des lots de 6 souris reçoivent le CRL 40933.

Data set [14] concerns souris. As to the kind of experiment: Interaction with oxotremorine. As to the method: as §1
Le CRL 40933 est administré à des lots de 6 souris 0,5 h avant l'injection intrapéritonéale de 0,5 mg/kg d'oxotrémorine.

Data set [15] deals with souris. As to the kind of experiment: Four plates test. Particulars: 64 et 256 mg/kg i.p. As to the method: as §1, §3
The test system of data set [16] is souris. As to the kind of experiment: Traction test. Conditions: 0,5 h after administration, dose not stated. As to the method: as §1, §3
Data set [17] deals with homme. As to the kind of experiment: Clinical trials. The text has this:
Les études cliniques ont porté sur les troubles de la vigilance, de l'éveil et des états confusionnels, d'une part, et sur les troubles de l'affectivité, du contact et des dépressions, d'autre part.

Where [18] appears, read: 16 mg/kg, 64 mg/kg et 256 mg/kg i.p.

Take `CC(C)(C)NC(=O)C[S+]([O-])C(c1ccccc1)c1ccccc1` (stereo not drawn) [Exemple 3]: in data set [1], the “Activité sur le SNC” value was “stimulant”.

In the case of `CCNC(=O)C[S+]([O-])C(c1ccccc1)c1ccccc1` (stereo not drawn) [Exemple 4], the “Activité sur le SNC” value in data set [1] was “sédatif”. Further, the “Action sur la durée du sommeil induit par le pentobarbital (50 mg/kg i.p.) effet” value in data set [2] (dose 64 mg/kg i.p., 0,5 h before pentobarbital) is “(a)”; in data set [2] (dose 128 mg/kg i.p., 0,5 h before pentobarbital) it was “(a)”; in [2] (dose 256 mg/kg i.p., 0,5 h before pentobarbital), “(a)”. In data set [3], the DL-O result is “supérieure à 512 mg/kg”. In data set [4] (doses faibles et moyennes), the “ensemble d'effets de type sédatif” value was “sédation, hypo- réactivité, hypoagressivité, hypothermie”. In data set [5] (doses faibles et moyennes), the “effet convulsivant de l'électrochoc” value is “antagonisme”. The activité motrice entry in data set [6] (doses faibles et moyennes) is “absence de toute diminution d'activité motrice”. In addition, the “motilité spontanée” value in data set [6] (doses élevées) is “hypermotilité discrète”. For the same molecule, in [7] (doses élevées), the “activité chez la souris habituée à son enceinte” value was “reprise modérée de l'activité”. Besides, the “récupération motrice après hypoxie” value in [8] is listed as “amélioration sensible”. Further, the sommeil barbiturique entry in data set [9] (dose not stated) is on record as “effet antagoniste”. Besides, in data set [10] (dose not stated), the “hypomotilité de "désespoir"” value was “diminution”.

As for `O=C(C[S+]([O-])C(c1ccccc1)c1ccccc1)N1CCOCC1` (stereo not drawn) [Exemple 6], in data set [1], the “Activité sur le SNC” value is on record as “sédatif”.

In the case of `NC(=O)C[S+]([O-])C(c1ccccc1)c1ccc(F)cc1` (stereo not drawn) [Exemple 9], the “Activité sur le SNC” value in data set [1] is “stimulant”. In addition, the “conclusion of the neuropsychopharmacological study: main type of CNS effect” value in [1] is recorded as “effet stimulant du SNC qui est essentiel”. Also, the “conclusion: effets de type antidépresseur” value in data set [1] is “à forte dose seulement un effet antidépresseur du SNC”. Further, the “Action sur la durée du sommeil induit par le pentobarbital (50 mg/kg i.p.) effet” value in [2] (dose 16 mg/kg i.p., 0,5 h before pentobarbital) is listed as “(a)”. Also, the DL-O entry in data set [3] is on record as “supérieure à 512 mg/kg”. For the same molecule, the “Observations (comportement global et réactivités)” value in data set [4] (16 mg/kg i.p.) is listed as “excitation pendant 1 h pour 33 % des animaux”; in data set [4] (64 mg/kg i.p.), “excitation apparaissant en 30 minutes, maximale après 2 h et durant 24 h - apparition tardive (2-3 h)- 4 mouvements stéréotypés de faible intensité - réactivité au toucher pendant 2-3 h”; in [4] (256 mg/kg i.p.), “excitation apparaissant en 30 minutes et maximale 2 à 3 h après administration - présence de stétréotypies nettes mais tardives - réactivité au toucher pendant 3 h”; in data set [11] (8 mg/kg i.p.), “hyporéactivité fugace (0,5 h) et diminution du tonus musculaire”; in data set [11] (32 mg/kg i.p.) it was “diminution fugace (0,5 h) de la réactivité au toucher et du tonus musculaire”; in data set [11] (128 mg/kg i.p.), “excitation pendant 2 h avec hyper-réactivité au toucher pendant 0,5 h”. The same molecule returned an excitation in [4] (16 mg/kg i.p., pendant 1 h) of 33 % des animaux. Moreover, in [12], the “action hypothermisante de l'apomorphine” value is “s'oppose”. Also, the “comportement de verticalisation et stéréotypies (apomorphine)” value in [12] is listed as “sans modifier”. Further, the “hypothermie réserpinique” value in [13] (256 mg/kg i.p., 1,5 h) is “s'oppose tardivement”. The “ptosis réserpinique” value in data set [13] (256 mg/kg i.p., 24 h) is listed as “s'oppose tardivement”. Also, in [14] (dose not stated), the “signes de stimulation cholinergique périphérique dus à l'oxotrémorine” value was “ne modifie pas”. In [14] (dose not stated), the “tremblements induits par l'oxotrémorine” value is reported as “n'est pratiquement pas modifiée”. Besides, in data set [14] (highest dose used), the “baisse de température provoquée par l'oxotrémorine” value is given as “s'oppose”. Also, in [15], the passages punis entry is “nette augmentation”. Moreover, the “déficit moteur (traction)” value in data set [16] is recorded as “ne provoque pas de déficit moteur”. Besides, the “effets convulsivants de l'électrochoc” value in [5] (256 mg/kg i.p.) is listed as “s'oppose partiellement”. For the same molecule, in data set [6], the “durée de l'hypermotilité” value was no less than 4 h. In [6], the “time of maximal hypermotility after administration” value is 0,5 h. Also, in data set [6] (dès la dose de 16 mg/kg i.p.), the “motilité spontanée” value is “pypermotilité”. In addition, in data set [7] (64 mg/kg et 256 mg/kg i.p.), the “activité motrice chez la souris habituée à son enceinte” value was “reprise de l'activité motrice”. In addition, in [9] (setting [18]), the “durée du sommeil barbiturique” value is “diminue nettement”. Besides, the “durée d'immobilité” value in data set [10] (setting [18]) was “diminue fortement”. Also, the “action contre l'énurésie” value in [17] is given as “agissent efficacement”. Moreover, in data set [17] (notamment vieillard, gélules ou comprimés de 100 à 200 mg, 1 à 3 par jour), the “résultats en tant que médicaments de l'éveil” value is on record as “excellents résultats”.

For the origin of these results see patent publication EP0097071A1, “Benzhydryl sulfinylacetamide derivatives and their therapeutical use” (LABORATOIRE L. LAFON Société anonyme dite:, priority 1982, dated 1983).
